Test results published in patent publication US20150038333A1, “PLANT PROTECTIVE COMPOSITION CONTAINING ALPHA-HYDROXY ACIDS” (HELMHOLTZ ZENTRUM MÜNCHEN DEUTSCHES FORSCHUNGSZENT -RUN FÜR …, priority 2011, published 2015).

What was measured:
UGT76B1 = target: T1, UGT76B1 (Arabidopsis thaliana, UniProt Q9C768); assay: In vitro glucosyltransferase activity assay of recombinant UGT76B1; assay type: biochemical; conditions: 0.5 mM aglycone, 5 mM UDP-glucose, 1 hour at 30° C., analyzed by mass spectrometry
T1 construct: The UGT76B1 open reading frame was amplified with the same primers as used for the construction of the overexpression lines; made in house
T1 sequence (Q9C768 1-447): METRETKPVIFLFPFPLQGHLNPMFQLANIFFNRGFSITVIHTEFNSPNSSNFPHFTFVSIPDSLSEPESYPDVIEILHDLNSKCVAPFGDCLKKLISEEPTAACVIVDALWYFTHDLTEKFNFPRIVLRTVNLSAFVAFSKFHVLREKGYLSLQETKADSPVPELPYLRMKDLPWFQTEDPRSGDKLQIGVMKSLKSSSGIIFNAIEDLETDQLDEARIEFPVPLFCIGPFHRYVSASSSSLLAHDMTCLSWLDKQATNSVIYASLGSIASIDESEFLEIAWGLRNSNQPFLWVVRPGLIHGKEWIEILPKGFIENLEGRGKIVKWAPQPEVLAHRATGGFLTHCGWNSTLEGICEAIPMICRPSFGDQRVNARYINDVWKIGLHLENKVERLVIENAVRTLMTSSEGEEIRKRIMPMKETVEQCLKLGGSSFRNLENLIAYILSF
Description: A glutathione-S-transferase (GST)-UGT761 expression plasmid was constructed using pDEST15 (Invitrogen, Germany). The UGT76B1 open reading frame was amplified with the same primers as used for the construction of the overexpression lines. The recombinant protein was affinity-purified using a glutathione-coupled sepharose beads according to the manufacturer's instructions (GE Healthcare, Germany), concentrated by membrane filtration (Amicon Ultra-4; Millipore, Germany) and supplemented with 20% glycerol for storage at −20° C. (Messner et al., 2003). To analyze the UGT enzyme activity assay mixtures contained 0.1 M Tris-HCl (pH 7.5), 5 mM UDP-glucose, 0.5 mM aglycone and about 1 μg fusion protein in a final volume of 50 μL. After incubation for 1 hour at 30° C. the reaction was stopped by addition of 200 μL methanol and cleared by centrifugation. Reactions were diluted 1:50 in 70% methanol (except for valic acid, which was used without dilution) and analyzed on a API4000 mass spectrometer using direct injection into the electrospray source at a flow rate of […]. 150 Scans were accumulated for each measurement in dual ion monitoring mode, which was adjusted to monitor ions at nominal m/z ratios of the corresponding expected substrate and product peaks with a mass range of ±5 Da.

[1] = system: defence marker genes PR1, PDF1.2 and VSP2; assay: Defense marker gene expression in Col-0 plants after spraying with α-hydroxy-acid (RTqPCR); assay type: in vivo, Arabidopsis; conditions: for expression of defense marker genes (PR1 and PDF1.2): 4-week-old Col-0 plants, 24 h after treatment, 1 mM in water, preliminary, two biological replicates
Description: Rosette leaves of the indicated age were collected. Total RNA was isolated using the RNeasy Plant Mini Kit (Qiagen, Germany). RNA integrity and amount was analyzed by gel electrophoresis and by spectrophotometry. One microgram of total RNA was reverse transcribed using a SuperScript II reverse transcription-PCR kit (Invitrogen; Germany) according to the manufacturer's instructions. Gene-specific primer pairs were designed using the Primer Express 3.0 software. […] Real time quantification was performed using a 7500 real time PCR system (Applied Biosystems, Germany). Individual PCR reaction mixtures contained 4 μL of diluted cDNA, 10 μL of Sybr Green Mastermix (Thermo Scientific, Germany) and […] of each primer in a final volume of 20 μL. In all experiments, three biological replicates of each sample and two technical (PCR) replicates were performed. The amount of target gene was normalized over the abundance of the constitutive UBQ5 (At3g62250) and S16 (At5g18380, At2g09990) genes. The stability of the reference genes was tested and normalization was performed using GeNorm (Vandesompele et al., 2002). For RTqPCR of infected material, plants were infected as described below. Three biological replicates were analyzed; each consisted of six individually infected leaves. Plant material was harvested before infection and mock treatments (time point 0) and at the indicated time points after treatment. Each experiment was repeated with similar results.
For isoleucic acid treatment, 4-week-old plants were sprayed with 0.5 or 1 mM isoleucic acid (diluted in water) or only water for mock treatments. Plants were covered with a plexiglass lid until the surface of the leaves became dry. The fifth to eighth true leaves of each plant were harvested 24 hours after treatment. Four leaves from three independent plants were pooled for each replicate and analyzed by real-time PCR.

[2] = system: pathogen responsive genes PR1 and PR10; assay: Induction of defence genes in barley leaves (semiquantitative PCR); assay type: in vivo, Hordeum vulgare; conditions: 2-week-old plants sprayed with 1 mM ILA, 48 h after treatment
Description: Total RNA was isolated using the RNeasy Plant Mini Kit (Qiagen, Germany). RNA integrity and amount was analyzed by gel electrophoresis and by spectrophotometry. One microgram of total RNA was reverse transcribed using a QuantiTect reverse transcription-PCR kit (Qiagen; Germany) according to the manufacturer's instructions. The following gene-specific primer pairs were kindly provided by Corina Vlot: EF1A_Hv_f (5′-[…]-3′) and EF1A_Hv_r (5′-[…]-3′) for the barley reference gene EF1A; PR1_Hv_f (5′-[…]-3′) and PR1_Hv_r (5′-[…]-3′) for barley PR1; Hv, PR10_Hv_f (5′-[…]-3′) and PR10_Hv_r (5′-[…]-3′) for barley PR10. PCR fragments were amplified using the indicated number of PCR cycles (FIG. 17) and separated on a 2% agarose gel containing ethidium bromide.
For ILA treatment in barley, 2-week-old plants were sprayed with either 1 mM ILA or 0.25 mg/ml BTH (benzothiadiazole/BION™), dissolved in water with 0.01% tween. For mock treatment, plants were sprayed only with water containing 0.01% tween. Leaves were harvested 48 hours after treatment and analyzed by semiquantitative PCR.

[3] = system: P. syringae pv. tomato DC3000 (avrRpm1) (Ps-avir); assay: Bacterial growth in Arabidopsis leaves of wild-type plants sprayed with ILA before infection; assay type: in vivo, Pseudomonas syringae
Description: FIG. 14: Direct effect of exogenously applied ILA on pathogen defence. Bacterial growth in Arabidopsis leaves of wild-type plants sprayed with water (blank) or 1 mM ILA (dotted) 24 h or 72 h before infection. Plants were inoculated with 5*10^5 cfu ml^−1 of Ps-avir and bacteria (cfu cm^−2) were quantified 0 and 3 days after inoculation. The graphs represent the means and standard deviations of three replicates.
Bacterial strains used in this study include Pseudomonas syringae pv. tomato DC3000 (Ps), P. syringae pv. tomato DC3000 (avrRpm1) (Ps-avir). Bacteria were grown overnight at 28° C. in King's B medium with appropriate antibiotics and diluted to 5*10^5 cfu mL^−1 with 10 mM MgCl2 for plant inoculation. Whole leaves of 5- to 6-week-old plants were infiltrated using a 1-mL syringe without a needle. Control plants were infiltrated with 10 mM MgCl2. Leaf discs from control treated and infected plants were harvested from inoculated leaves at 0, 1 and 3 d after infiltration. Bacterial growth was assessed as described previously (Katagiri et al., 2002). For each time point, three samples were made by pooling six leaf discs from three different treated plants.

[4] = leaves of four-week-old Col-0 plants, 24 h after spraying isoleucic acid solution

CCC(O)(CC)C(=O)O [2-ethyl-2-hydroxybutyric acid]
glucosylation by recombinant UGT76B1 (UGT76B1): no activity

CCCCCCC(O)C(=O)O (stereo not drawn) [2-hydroxy-octanoic acid]
expression of defense marker genes (PR1 and PDF1.2) [1]: can also induce

CCC(C)C(O)C(=O)O (stereo not drawn) [isoleucic acid, 2-hydroxy-3-methylpentanoic acid]
PR1 transcript level in barley [2]: induces | PR10 transcript level in barley [2]: induces | persistence of increased resistance after ILA spraying ([3]; 1 mM ILA sprayed 24 h or 72 h before Ps-avir infection): 1 to 3 days | bacterial growth compared with mock treatment ([3]; 1 mM ILA sprayed 24 h or 72 h before infection with 5*10^5 cfu ml^-1 Ps-avir, bacteria quantified 3 days after inoculation): about four- to fivefold less bacterial growth | glucosylation by recombinant UGT76B1 (UGT76B1): glucosylated | PDF1.2 expression relative to mock (water) treatment [1, 4]: tendency for induction | VSP2 expression relative to mock (water) treatment [1, 4]: only marginally suppressed | PR1 expression relative to mock (water) treatment ([1]; leaves of four-week-old Col-0 plants, 24 h after spraying isoleucic acid solution (0.5 or 1 mM)): more than tenfold induced

CC(C)[C@H](O)C(=O)O [valic acid, (S)-(+)-2-hydroxy-3-methylbutyric acid]
glucosylation by recombinant UGT76B1 (UGT76B1): able to glucosylate | expression of defense marker genes (PR1 and PDF1.2) [1]: can also induce
